Data published in patent EP0079675A1, “Oxazolidinedione derivatives” (PFIZER INC., priority 1981, dated 1983).

Tests used:
[1] = target: T1, aldose reductase enzyme obtained from calf lens (Bos taurus, UniProt P16116); assay: inhibition of aldose reductase enzyme activity (procedure of S. Hayman et al., modified by K. Sestanj et al.); assay type: biochemical; details: partially purified calf lens aldose reductase, read-out: Percent Inhibition (%); for inhibition at 10 µM: 10^-5M; for inhibition at 1 µM: 10^-6M; for inhibition at 0.1 µM: 10^-7M
T1 construct: partially purified aldose reductase enzyme obtained from calf lens; from tissue; host or cells: calf lens
Experimental: (§1) The activity of the compounds of the present invention, as agents for the control of chronic diabetic complications, is determined by their ability to successfully pass one or more of the following standard biological or pharmacological tests, viz., (1) measuring their ability to inhibit the enzyme activity of isolated aldose reductase; (2) measuring their ability to reduce or inhibit sorbitol accumulation in the sciatic nerve of acutely streptozotocinized (i.e., diabetic) rats; (3) measuring their ability to reverse already-elevated sorbitol levels in the sciatic nerve and lens of chronic streptozotocin-induced diabetic rats; (4) measuring their ability to prevent or inhibit galactitol formation in the lens of acutely galactosemic rats, and (5) measuring their ability to delay cataract formation and reduce the severity of lens opacities in chronic galactosemic rats.
The following s^piro-oxindole oxazolidinedione final products of Examples 1-4, respectively, were tested for their ability to reduce or inhibit aldose reductase enzyme activity via the procedure of S. Hayman et al., as described in the Journal of Biological Chemistry, Vol 240, p.. 877 (1965) and as modified by K. Sestanj et al. in U.S. Patent No. 3,821,383. In every case, the substrate employed was partially purified aldose reductase enzyme obtained from calf lens.

[2] = test system: sorbitol levels in diabetic rats; assay: inhibition of sorbitol formation/accumulation in diabetic rats; assay type: in vivo; details: oral route, dose levels ranging from 0.5 mg./kg. to 20 mg./kg.
Excerpt: As previously indicated, the spiro-oxindole oxazolidinedione compounds of this invention are readily adapted to therapeutic use as aldose reductase inhibitors for the control of chronic diabetic com^pli- cations, in view of their ability to reduce lens sorbitol levels in diabetic subjects to a statistically significant degree. […] Furthermore, the herein described compounds of this invention can be administered by either the oral or parenteral routes of administration. […]
as §1

With `CN1C(=O)C2(OC(=O)NC2=O)c2cc(Cl)ccc21` (centres unmarked) [Product of Example 3] as the compound, how does the inhibition at 10 µM [1] read?
Its inhibition at 10 µM is 67%.

And the inhibition at 1 µM [1]?
The inhibition at 1 µM was 31%.

And the inhibition at 0.1 µM [1]?
Its inhibition at 0.1 µM is 10%.

With `O=C1NC(=O)C2(O1)C(=O)N(c1ccc(F)cc1)c1ccc(F)cc12` (centres unmarked) [Product of Example 1, 1-(p-fluorophenyl)-5-fluoro-spiro-[indoline-3,5-oxazolidine]-2,2',4'-trione] as the compound, how does the inhibition at 10 µM [1] read?
The inhibition at 10 µM was 87%.

And the inhibition at 1 µM [1]?
Its inhibition at 1 µM is 65%.

And the inhibition at 0.1 µM [1]?
The inhibition at 0.1 µM was 25%.

For `CC(C)N1C(=O)C2(OC(=O)NC2=O)c2cc(Cl)ccc21` (centres unmarked) [Product of Example 2, 1-isopropyl-5-chloro-s^piro-[indoline-3,5'-oxazolidine]-2,2',4'-trione], which inhibition at 10 µM [1] is on record?
Its inhibition at 10 µM is 80%.

What about the inhibition at 1 µM [1] of the same compound?
The inhibition at 1 µM was 45%.

And the inhibition at 0.1 µM [1]?
The inhibition at 0.1 µM was 17%.

Which results are given for `O=C1NC(=O)C2(O1)C(=O)N(Cc1ccc(Cl)cc1)c1ccc(Cl)cc12` (centres unmarked) [Product of Example 4, 1-(p-chlorobenzyl)-5-chloro-spiro-(indoline-3,5'-oxazolidine]-2,2',4'-trione]?
inhibition at 100 µM ([1]; 10^-4M): 100%; inhibition at 10 µM [1]: 89%; inhibition at 1 µM [1]: 81%; inhibition at 0.1 µM [1]: 60%; inhibit the formation of sorbitol levels [2]: to a significantly high degree
